Test results: US20080003288A1, “Responsive microgel and methods related thereto” (Supratek Pharma Inc., priority 2002, published 2008)
Read-outs that look alike come from different tables or passages of the source.

Tests used:
[1] = Dynamic dialysis without microgels: permeability of the dialysis membrane to free solutes; assay type: physicochemical; conditions: through dialysis membrane, no microgel, from mean K and membrane thickness (eqn 3)
Excerpt: Drug release from microgels loaded with either DCTAF-labeled PLURONIC® or doxorubicin was studied using the dynamic dialysis technique of Gupta, P. K., et al., J. Pharm. […] A Teflon-made, thermostatted dynamic dialyzer consisted of two chambers, separated by a dialysis membrane (cellulose ester, working area A=0.35 cm^2, molecular weight cut-off 100 kDa, Spectrum Laboratories). […] Concentration of the drug in the receiver solution was monitored online by passing through a thermostatted quartz cuvette (path length 1.0 cm). […] The dialyzer was maintained at 37° C. by submersion in a water bath. The flow rate through the receiver chamber was maintained at 1.5 mL/min. […] The total volume of the receiver solution (Vr), including the chamber, cuvette, and 0.093″ tubing, was 98 mL in all experiments.
Permeability of the dialysis membrane was determined by loading a certain amount (qf^0) of either doxorubicin or PLURONIC® solution into the feed chamber and measuring the kinetics of release. […] The membrane thickness (δ) was measured microscopically in the receiver solution upon completion of the dialysis experiment and was typically in the order of 100 μm. […]
In the control experiments, we measured permeability of the dialysis membrane for doxorubicin and PLURONIC® L61 without loading into microgels. […]

[2] = Equilibrium loading (uptake) of drugs into microgels; assay type: physicochemical; conditions: pH 7.0, PLURONIC-PAA microgels XL = 1 mol %
Experimental: A microgel was suspended in Tris buffer (5 mM, pH 7.0) and 50 μL of the suspension (2 mg gel/mL buffer) was equilibrated with 3.0 mM stock solution of a drug (450 μL) for 16 h while shaking 44, 45. Shaking was performed using a KS 10 orbital shaker (BEA-Enprotech Corp., Hyde Park, Mass.) in an environmental chamber at 37° C. […] Deionized water was used as a mobile phase (flow rate, 1 mL/min, injection volume, 25 μL), and detection was carried out at 365 nm 47. […] The U values were measured in triplicate for each drug and for each temperature, pH, and gel, respectively. […] This ensured equilibrium U values. […] The beads were separated into several fractions. […] Then the beads were recovered from the suspension by using a magnet. […] The control fraction of loaded beads was subjected to the extraction without equilibration with the microgel suspension.

[3] = Transepithelial transport of doxorubicin across Caco-2 monolayers; assay type: in vitro ADME; conditions: human
Experimental: (§1) The drug-containing samples for the transport experiments were prepared as follows. […] The suspension was centrifuged at 8000×g for 0.5 h and the supernatant was removed. The pellet was weighed and resuspended in fresh portion of serum-free DMEM of a known weight. Known amount of doxorubicin and Pluronic were dissolved in the suspension, which was allowed to equilibrate at 37° C. overnight, then snap-frozen and lyophilized. The powders were kept at −70° C. Before the transport experiments, a known amount of powder was reconstituted in DMEM and was allowed to equilibrate at 37° C. overnight.
(§2) Cells were seeded at a density of (2-4)×10^4 cells/cm^2 on top of Transwell™ polycarbonate filters (pore size, 0.4 μm; diameter, 24.5 mm; growth area, 4.71 cm^2) from Costar (Cambridge, Mass.). The cells were grown for 3 weeks prior to the transport experiments and trans-epithelial electrical resistance (TEER) was measured using a Millicell-ERS device (Millipore, Bedford, Mass.) equipped with rod-shaped electrodes. The TEER data were corrected for background readings contributed by the blank filter and culture medium. […] Then the monolayers were rinsed twice by serum-free DMEM and the transport experiment commenced by replacing the medium at either the basolateral or the apical side of the monolayer with 2.5 mL of the serum-free DMEM containing doxorubicin (with or without microgels, see Table 3). Simultaneously, the medium on the other side was refreshed. The monolayers were incubated at 37° C. in 10% CO2 atmosphere. Samples of 200 μL were taken from each side intermittently, and the drug concentration was measured in the samples withdrawn from the side opposite to the side of the drug application. The volumes withdrawn were immediately replaced with equal volumes of serum-free DMEM pre-equilibrated at 37° C. Each experiment was repeated four times. […] Additionally, the concentration of doxorubicin in the medium was measured by HPLC using a Capcell Pak UG C18 (100×4.6 mm I.D., particle size 5 μm) column and a Universal Guard Cartridge System (Phenomenex, Torrance, Calif.). […] Water/acetonitrile (70/30, pH 4) was used as the mobile phase (flow rate, 1 mL/min, injection volume, 5 μL), and detection was carried out using an Argon Ion laser (488 nm, 10 mW). […] Temperature was controlled to ±0.05 C using a circulating water bath. The platinum Wilhelmy plate was washed with acetone, rinsed in Milli-Q water, and flamed until red-hot before each measurement.
(§3) The apparent permeability of the Caco-2 monolayer (Pa, cm/s) was calculated from the linearized time course of the doxorubicin fractional transport (dI1t/dt in the fluorescence assay and dCt/dt in the HPLC assay) normalized to the effective surface area of the filter (A=4.71 cm^2) and the initial fluorescence emission intensity reading (Io) or initial doxorubicin concentration (Co) in the donor (basolateral or apical) compartment of volume V=2.5 cm^3: [formula]

Caco-2 monolayers = test: as above; assay type: in vitro ADME; conditions: doxorubicin 3 μM in donor, no further additive in DMEM
Experimental: as §1, §2, §3

[4] = cited from earlier work; for Charge: valency of cationic weak base, 0 = uncharged

Structure (SMILES)	effective diffusion coefficient (D) [1]	Uptake ± SD ([2]; 20° C.)	Uptake ± SD ([2]; 37° C.)	Papp A→B at 3 μM ([3]; Caco-2, doxorubicin 3 μM in donor, no further additive in DMEM, read-out: Pa, a→b, HPLC assay)	Papp B→A at 3 µM ([3]; Caco-2, doxorubicin 3 μM in donor, no further additive in DMEM, read-out: apparent permeability, b→a, HPLC assay)	Papp B→A at 3 µM ([3]; Caco-2, doxorubicin 3 μM in donor, no further additive in DMEM, read-out: apparent permeability, b→a, fluorescence assay)	efflux ratio ([3]; Caco-2, no additives, read-out: active efflux exceeding the passive influx)	Pa, a→b, fluorescence assay (Caco-2 monolayers)	Log P (n-octanol-to-water partition coefficient) [4]	Charge [4]
COc1cccc2c1C(=O)c1c(O)c3c(c(O)c1C2=O)C[C@@](O)(C(=O)CO)C[C@@H]3O[C@H]1C[C@H](N)[C@H](O)[C@H](C)O1 [Doxorubicin]	2.4×10^−5 cm^2/s	2.97 ± 0.33 (20° C.) mmol/g	2.26 ± 0.37 (37° C.) mmol/g	5.79 nm/s	27.5 nm/s	28.1 nm/s	4.6	(6.07±0.04)×10^−7 cm/s	1.85	1
CO[C@@]12[C@H](COC(N)=O)C3=C(C(=O)C(C)=C(N)C3=O)N1C[C@@H]1N[C@@H]12 [Mitomycin C]			5.31 ± 1.86 (37° C.) mmol/g							3
O=C1c2c(O)ccc(O)c2C(=O)c2c(NCCNCCO)ccc(NCCNCCO)c21 [Mitoxantrone]			3.70 ± 0.56 (37° C.) mmol/g							
